Measurements as given in patent US4514414A, “N-Substituted pyrrolidineacetic acids and their esters” (Smithkline Beckman Corporation, priority 1982, dated 1985).
pIC50: −log10 of the molar value.

System: GABA uptake by a crude synaptosomal fraction (P2) of the rat brain
Assay: Inhibition of 3H-GABA uptake by crude synaptosomal fraction (P2) of rat brain
Assay type: biochemical
Settings: rat brain P2 synaptosomal suspension, 37° C., 15 minutes preincubation, 1 μM 3H-GABA, incubation time 3 minutes; read-out: IC50 (concentration producing a 50% inhibition of GABA accumulation)
Procedure: The inhibition of GABA uptake produced by the compounds of this invention is measured by the ability of the active medicament to inhibit ^3 H-GABA uptake by a crude synaptosomal fraction (P2) of the rat brain. In this test system, aliquots of the P2 suspension are preincubated in a buffered physiological medium at 37° C. in the presence of test compound for 15 minutes. Uptake is initiated by the addition of ^3 H-GABA to a final concentration of 1 μM and terminated by filtration through a 0.45 um Millipore filter. Incubation time is 3 minutes. A compound producing a 50% or greater inhibition of GABA uptake at concentrations of 10 μM is considered to show biosignificant activity. The IC50 value is the concentration of a compound producing a 50% inhibition of GABA accumulation.

SMILES: O=C(O)CC1CCN(CCC=C(c2ccccc2)c2ccccc2)C1 (stereo not shown) [1-(4,4-diphenyl-3-butenyl)-3-pyrrolidineacetic acid]
- pIC50: 6.92
